Measured values as given in ChEMBL document CHEMBL1201862, “PubChem BioAssay data set” (2004).
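The compound was tested at five concentrations on cells cultured in 96-well plates, with a 48-hour exposure period. GI50 marks 50% less growth.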 The source made the active and inactive calls. Rule as the data show it: active = GI50 up to about 1.1 µM and inactive = higher.

Legend:
Experiment in all cases: NCI tumour cell line growth inhibition, 48 h
[1] = tested on: Hs-578T
[2] = tested on: MCF7
[3] = tested on: HCT-116
[4] = tested on: UACC-257
[5] = tested on: HCC 2998
[6] = tested on: SNB-19
[7] = tested on: MDA-N
[8] = tested on: SK-MEL-28
[9] = tested on: UACC-62
[10] = tested on: A549
[11] = tested on: HOP-92
[12] = tested on: OVCAR-5
[13] = tested on: OVCAR-3
[14] = tested on: HL-60
[15] = tested on: K562
[16] = tested on: BT-549
[17] = tested on: DU-145
[18] = tested on: SF-539
[19] = tested on: SF-295
[20] = tested on: OVCAR-8
[21] = tested on: KM12
[22] = tested on: Malme-3M
[23] = tested on: IGROV-1
[24] = tested on: OVCAR-4
[25] = tested on: HT-29
[26] = tested on: NCI-H522
[27] = tested on: 786-0
[28] = tested on: A498
[29] = tested on: MOLT-4
[30] = tested on: U-251
[31] = tested on: SF-268
[32] = tested on: LOX IMVI
[33] = tested on: CCRF-CEM
[34] = tested on: MDA-MB-231
[35] = tested on: SW-620
[36] = tested on: M14
[37] = tested on: NCI-H23
[38] = tested on: TK-10
[39] = tested on: T47D
[40] = tested on: EKVX
[41] = tested on: HCT-15
[42] = tested on: NCI/ADR-RES
[43] = tested on: SK-MEL-2
[44] = tested on: COLO 205
[45] = tested on: ACHN
[46] = tested on: NCI-H460
[47] = tested on: SK-OV-3
[48] = tested on: SNB-75
[49] = tested on: MDA-MB-435
[50] = tested on: RPMI-8226
[51] = tested on: PC-3
[52] = tested on: SN12C
[53] = tested on: NCI-H226
[54] = tested on: CAKI-1
[55] = tested on: SK-MEL-5
[56] = tested on: RXF 393
[57] = tested on: UO-31
[58] = tested on: HOP-62
[59] = tested on: SR

`CCCCCCCCCCCCCCCC(=O)OC1C(O)C(O)C(O)C(O)C12CO2` (stereo unspecified) was tested, and the GI50 [1] was 31.4 µM (inactive), the GI50 [2] was 16.2 µM (inactive) and the GI50 [3] was 24.3 µM (inactive). The GI50 [4] was > 100 µM (inactive), the GI50 [5] was 71.8 µM (inactive) and the GI50 [6] was > 100 µM (inactive). For the same compound, the GI50 [7] was > 100 µM (inactive), the GI50 [8] was > 100 µM (inactive) and the GI50 [9] was 28.4 µM (inactive). For the same compound, the GI50 [10] was > 100 µM (inactive), the GI50 [11] was 14.3 µM (inactive) and the GI50 [12] was 56 µM (inactive). For the same compound, the GI50 [13] was 24.6 µM (inactive), the GI50 [14] was 15.2 µM (inactive) and the GI50 [15] was 24.7 µM (inactive). The GI50 [16] was 24.2 µM (inactive), the GI50 [17] was 88.5 µM (inactive) and the GI50 [18] was 25.8 µM (inactive). For the same compound, the GI50 [19] was 70.1 µM (inactive), the GI50 [20] was 22.8 µM (inactive) and the GI50 [21] was 36.2 µM (inactive). For the same compound, the GI50 [22] was > 100 µM (inactive), the GI50 [23] was 25.1 µM (inactive) and the GI50 [24] was 55.1 µM (inactive). For the same compound, the GI50 [25] was 45.4 µM (inactive), the GI50 [26] was 33 µM (inactive) and the GI50 [27] was 18.6 µM (inactive). For the same compound, the GI50 [28] was > 100 µM (inactive), the GI50 [29] was 12.2 µM (inactive) and the GI50 [30] was 17.5 µM (inactive). For the same compound, the GI50 [31] was 34 µM (inactive), the GI50 [32] was 20.3 µM (inactive) and the GI50 [33] was 7.94 µM (inactive). For the same compound, the GI50 [34] was 34.4 µM (inactive), the GI50 [35] was 14.7 µM (inactive) and the GI50 [36] was > 100 µM (inactive). For the same compound, the GI50 [37] was 49.2 µM (inactive), the GI50 [38] was > 100 µM (inactive) and the GI50 [39] was > 100 µM (inactive). For the same compound, the GI50 [40] was 22.7 µM (inactive), the GI50 [41] was 24.5 µM and the GI50 [42] was 46 µM (inactive). The GI50 [43] was 37.3 µM (inactive), the GI50 [44] was 36.3 µM (inactive) and the GI50 [45] was 24.4 µM (inactive). For the same compound, the GI50 [46] was > 100 µM (inactive), the GI50 [47] was 51.4 µM (inactive) and the GI50 [48] was 20.7 µM (inactive). For the same compound, the GI50 [49] was 48.5 µM (inactive), the GI50 [50] was 26.4 µM (inactive) and the GI50 [51] was 20.9 µM (inactive). The GI50 [52] was 17.5 µM (inactive), the GI50 [53] was 42.8 µM (inactive) and the GI50 [54] was 13.6 µM (inactive). The GI50 [55] was > 100 µM (inactive), the GI50 [56] was 69.2 µM (inactive) and the GI50 [57] was 68.4 µM (inactive). The GI50 [58] was > 100 µM (inactive).

In the case of `S=C1CC(c2ccccc2)Sc2cc(Cl)ccc2N1` (stereo unspecified), the GI50 [1] is reported as 8.91 µM (inactive), the GI50 [2] is reported as 4.34 µM (inactive) and the GI50 [3] is reported as 3.03 µM (inactive). The GI50 [4] was 6.04 µM (inactive), the GI50 [6] was 10.8 µM (inactive) and the GI50 [7] was 0.661 µM (active). For the same compound, the GI50 [8] was 8.73 µM (inactive), the GI50 [9] was 5.56 µM (inactive) and the GI50 [10] was 5.68 µM (inactive). The GI50 [12] was > 100 µM (inactive), the GI50 [13] was 2.49 µM (inactive) and the GI50 [14] was 0.726 µM (active). For the same compound, the GI50 [15] was 0.64 µM (active), the GI50 [59] was 3.44 µM (inactive) and the GI50 [16] was 8.79 µM (inactive). For the same compound, the GI50 [17] was > 100 µM (inactive), the GI50 [19] was 3.45 µM (inactive) and the GI50 [20] was 13.2 µM (inactive). The GI50 [21] was 3.97 µM (inactive), the GI50 [22] was 6.28 µM (inactive) and the GI50 [23] was 16 µM (inactive). The GI50 [24] was 13.2 µM (inactive), the GI50 [25] was 4.4 µM (inactive) and the GI50 [26] was 2.21 µM (inactive). The GI50 [27] was 5.42 µM (inactive), the GI50 [29] was 1.51 µM (inactive) and the GI50 [30] was 4.26 µM (inactive). For the same compound, the GI50 [31] was 6.84 µM (inactive), the GI50 [32] was 4.09 µM (inactive) and the GI50 [33] was 1.36 µM (inactive). The GI50 [34] was 7.57 µM (inactive), the GI50 [36] was 3.12 µM (inactive) and the GI50 [37] was 5.41 µM (inactive). For the same compound, the GI50 [38] was 16.2 µM (inactive), the GI50 [39] was 21.6 µM (inactive) and the GI50 [40] was 20.7 µM (inactive). For the same compound, the GI50 [41] was 1.32 µM, the GI50 [42] was 3.52 µM (inactive) and the GI50 [44] was 5.02 µM (inactive). The GI50 [45] was 9.46 µM (inactive), the GI50 [46] was 6.59 µM (inactive) and the GI50 [47] was 7.35 µM (inactive). The GI50 [48] was 5.24 µM (inactive), the GI50 [49] was 0.723 µM (active) and the GI50 [50] was 43.5 µM (inactive). The GI50 [51] was 1.87 µM (inactive), the GI50 [52] was 8.77 µM (inactive) and the GI50 [53] was 14.2 µM (inactive). The GI50 [54] was 7.71 µM (inactive), the GI50 [55] was 5.64 µM (inactive) and the GI50 [56] was 6.55 µM (inactive). For the same compound, the GI50 [57] was 44.5 µM (inactive) and the GI50 [58] was 5.61 µM (inactive).
